Measured values as given in the supplement of paper PMC10307832.

Key:
Assay in all cases: relative viability (nuclei count vs DMSO), 5 days (fraction); higher = more cells survive
Zosuquidar + Olaparib = compound: O[C@@H](COc1cccc2ncccc12)CN1CCN([C@@H]2c3ccccc3[C@@H]3[C@H](c4ccccc42)C3(F)F)CC1 [Zosuquidar] + O=C(c1cc(Cc2n[nH]c(=O)c3ccccc23)ccc1F)N1CCN(C(=O)C2CC2)CC1 [Olaparib] (partner 8 µM)
Method in brief: (§1)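 Lung cancer cell lines in 1536-well plates were dosed by pin tool the day after seeding, either with one drug alone or with a fixed anchor-drug dose plus five library-drug doses (not always all listed) in √10 steps. After 5 days, cells were fixed and their nuclei stained in one step (final 0.05% Triton X-100, 1% formaldehyde, 1 ug/ml Hoechst), then counted on 4× images. Relative viability is the nuclei count in treated wells divided by that in vehicle wells. Values are medians of duplicate plates.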

[1] = compound: COc1cc2nccc(Oc3ccc(NC(=O)C4(C(=O)Nc5ccc(F)cc5)CC4)cc3)c2cc1OC [Cabozantinib] + Cc1cc(Nc2cc(N3CCN(C)CC3)nc(Sc3ccc(NC(=O)C4CC4)cc3)n2)n[nH]1 [Tozasertib] (partner 0.1 µM)
Method in brief: as §1

Zosuquidar + Alpelisib = compound: O[C@@H](COc1cccc2ncccc12)CN1CCN([C@@H]2c3ccccc3[C@@H]3[C@H](c4ccccc42)C3(F)F)CC1 [Zosuquidar] + Cc1nc(NC(=O)N2CCC[C@H]2C(N)=O)sc1-c1ccnc(C(C)(C)C(F)(F)F)c1 [Alpelisib] (partner 2 µM)
Method in brief: as §1

[2] = compound: COc1cc2nccc(Oc3ccc(NC(=O)C4(C(=O)Nc5ccc(F)cc5)CC4)cc3)c2cc1OC [Cabozantinib] + CS(=O)(=O)N1CCN(Cc2cc3nc(-c4cccc5[nH]ncc45)nc(N4CCOCC4)c3s2)CC1 [Pictilisib] (partner 1 µM)
Method in brief: as §1

Question: With UMC-11 as the cell line, how does the relative viability (Zosuquidar + Olaparib; first compound 0.01 µM) read?
Answer: 0.505

Question: What about the relative viability (Zosuquidar + Olaparib; first compound 0.03162 µM) of the same cell line?
Answer: 0.38

Question: What about the relative viability (Zosuquidar + Olaparib; first compound 0.1 µM) of the same cell line?
Answer: 0.413

Question: What about the relative viability (Zosuquidar + Olaparib; first compound 0.3162 µM) of the same cell line?
Answer: 0.385

Question: And the relative viability (Zosuquidar + Olaparib; first compound 1 µM)?
Answer: 0.34

Question: What about the relative viability ([1]; first compound 0.02 µM) of the same cell line?
Answer: 0.192

Question: What about the relative viability ([1]; first compound 0.06325 µM) of the same cell line?
Answer: 0.2

Question: What about the relative viability ([1]; first compound 0.2 µM) of the same cell line?
Answer: 0.203

Question: What about the relative viability ([1]; first compound 0.6325 µM) of the same cell line?
Answer: 0.204

Question: What about the relative viability ([1]; first compound 2 µM) of the same cell line?
Answer: 0.202

Question: What about the relative viability (Zosuquidar + Alpelisib; first compound 0.01 µM) of the same cell line?
Answer: 0.877

Question: What about the relative viability (Zosuquidar + Alpelisib; first compound 0.03162 µM) of the same cell line?
Answer: 1.03

Question: And the relative viability (Zosuquidar + Alpelisib; first compound 0.1 µM)?
Answer: 0.973

Question: What about the relative viability (Zosuquidar + Alpelisib; first compound 0.3162 µM) of the same cell line?
Answer: 1.02

Question: And the relative viability (Zosuquidar + Alpelisib; first compound 1 µM)?
Answer: 0.961

Question: And the relative viability ([2]; first compound 0.02 µM)?
Answer: 0.804

Question: What about the relative viability ([2]; first compound 0.06325 µM) of the same cell line?
Answer: 0.96

Question: What about the relative viability ([2]; first compound 0.2 µM) of the same cell line?
Answer: 0.8

Question: And the relative viability ([2]; first compound 0.6325 µM)?
Answer: 0.782

Question: And the relative viability ([2]; first compound 2 µM)?
Answer: 0.76
